This note sets out measurements from paper PMC4854315, “Discovery of a novel allosteric inhibitor-binding site in ERK5: comparison with the canonical kinase hinge ATP-binding site” (Acta Crystallographica. Section D, Structural Biology, 2016).

Holding throughout (assay): Z'-LYTE kinase panel
Holding throughout (format): biochemical

The target of assay [1] is T1, PLK1 (Homo sapiens, UniProt P53350).
T1 construct: purchased ThermoFisher (SelectScreen, Z'-LYTE)
The gist of the method: (§1)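 Standard Z′-LYTE protocol applied. Compound fixed at 10 µM. Output: % inhibition. Panel size 225 kinases.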

Assay [2] has as its target T2, EPHB2 (Homo sapiens, UniProt P29323).
T2 construct: purchased ThermoFisher (SelectScreen, Z'-LYTE)
T2 sequence (P29323 19-1055): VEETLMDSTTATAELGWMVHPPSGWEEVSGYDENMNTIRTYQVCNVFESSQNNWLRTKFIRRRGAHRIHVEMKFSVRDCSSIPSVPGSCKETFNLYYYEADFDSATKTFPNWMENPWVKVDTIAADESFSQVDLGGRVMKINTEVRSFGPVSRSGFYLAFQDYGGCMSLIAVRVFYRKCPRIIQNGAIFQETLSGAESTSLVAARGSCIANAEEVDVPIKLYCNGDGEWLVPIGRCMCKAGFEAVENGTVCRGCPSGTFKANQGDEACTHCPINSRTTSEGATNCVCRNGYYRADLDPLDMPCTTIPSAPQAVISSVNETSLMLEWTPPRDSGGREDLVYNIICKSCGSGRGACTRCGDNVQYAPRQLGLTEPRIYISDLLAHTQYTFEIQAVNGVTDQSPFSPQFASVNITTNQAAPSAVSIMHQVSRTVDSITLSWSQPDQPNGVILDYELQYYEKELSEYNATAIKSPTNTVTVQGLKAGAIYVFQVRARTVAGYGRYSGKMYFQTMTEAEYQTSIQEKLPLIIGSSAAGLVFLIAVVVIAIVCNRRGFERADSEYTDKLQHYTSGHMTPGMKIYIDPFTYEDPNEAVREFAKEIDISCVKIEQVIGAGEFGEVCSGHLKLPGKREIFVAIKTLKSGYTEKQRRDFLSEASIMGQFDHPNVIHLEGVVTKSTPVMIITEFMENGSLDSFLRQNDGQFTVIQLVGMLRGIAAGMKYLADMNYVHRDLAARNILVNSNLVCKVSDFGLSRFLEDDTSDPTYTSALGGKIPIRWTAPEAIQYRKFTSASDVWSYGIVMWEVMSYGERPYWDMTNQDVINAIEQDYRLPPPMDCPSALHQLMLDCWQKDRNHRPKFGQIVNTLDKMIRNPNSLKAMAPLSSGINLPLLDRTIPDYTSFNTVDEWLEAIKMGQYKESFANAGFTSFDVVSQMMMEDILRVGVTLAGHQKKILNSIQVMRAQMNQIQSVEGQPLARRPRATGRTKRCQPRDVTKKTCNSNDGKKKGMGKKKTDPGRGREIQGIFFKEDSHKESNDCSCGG
The gist of the method: as §1

Assay [3] deals with T3, CSNK1D (CK1 delta) (Homo sapiens, UniProt P48730).
T3 construct: purchased ThermoFisher (SelectScreen, Z'-LYTE)
The method, boiled down:
as §1

The target of assay [4] is T4, CSNK1E (CK1 epsilon) (Homo sapiens, UniProt P49674).
T4 construct: purchased ThermoFisher (SelectScreen, Z'-LYTE)
The gist of the method:
as §1

The target of assay [5] is T5, MARK1 (MARK) (Homo sapiens, UniProt Q9P0L2).
T5 construct: purchased ThermoFisher (SelectScreen, Z'-LYTE)
The method, boiled down:
as §1

The target in assay [6] is T6, PRKCI (PKC iota) (Homo sapiens, UniProt P41743).
T6 construct: purchased ThermoFisher (SelectScreen, Z'-LYTE)
T6 sequence (P41743 1-596): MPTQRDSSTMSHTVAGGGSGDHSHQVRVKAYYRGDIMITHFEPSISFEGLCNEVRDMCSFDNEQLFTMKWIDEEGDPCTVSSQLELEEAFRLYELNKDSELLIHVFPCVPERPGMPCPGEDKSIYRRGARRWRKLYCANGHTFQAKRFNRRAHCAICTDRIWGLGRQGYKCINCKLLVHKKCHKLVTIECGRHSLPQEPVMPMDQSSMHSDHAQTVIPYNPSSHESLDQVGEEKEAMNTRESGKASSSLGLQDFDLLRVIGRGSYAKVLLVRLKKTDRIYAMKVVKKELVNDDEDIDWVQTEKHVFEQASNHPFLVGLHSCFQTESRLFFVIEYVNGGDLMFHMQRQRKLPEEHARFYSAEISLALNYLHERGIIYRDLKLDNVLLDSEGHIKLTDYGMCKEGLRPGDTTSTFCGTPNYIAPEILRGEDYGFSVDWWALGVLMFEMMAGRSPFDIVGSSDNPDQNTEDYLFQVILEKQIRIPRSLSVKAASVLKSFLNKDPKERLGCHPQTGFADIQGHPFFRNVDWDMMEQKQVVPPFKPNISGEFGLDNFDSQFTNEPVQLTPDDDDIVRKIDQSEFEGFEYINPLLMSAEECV
The gist of the method:
as §1

Assay [7] has as its target T7, PDGFRB (PDGFR beta) (Homo sapiens, UniProt P09619).
T7 construct: purchased ThermoFisher (SelectScreen, Z'-LYTE)
The method, boiled down: as §1

Assay [8] has as its target T8, RPS6KA4 (MSK2) (Homo sapiens, UniProt O75676).
T8 construct: purchased ThermoFisher (SelectScreen, Z'-LYTE)
The gist of the method:
as §1

For assay [9], the target named is T9, CHEK2 (CHK2) (Homo sapiens, UniProt O96017).
T9 construct: purchased ThermoFisher (SelectScreen, Z'-LYTE)
The method, boiled down:
as §1

Assay [10] addresses T10, CDK2/cyclin A (Homo sapiens, UniProt P24941).
T10 construct: purchased ThermoFisher (SelectScreen, Z'-LYTE)
The gist of the method:
as §1

Assay [11] concerns the target T11, DNA-PK (Homo sapiens, UniProt P78527).
T11 construct: purchased ThermoFisher (SelectScreen, Z'-LYTE)
The gist of the method:
as §1

The target in assay [12] is T12, PRKCG (PKC gamma) (Homo sapiens, UniProt P05129).
T12 construct: purchased ThermoFisher (SelectScreen, Z'-LYTE)
The gist of the method:
as §1

The target of assay [13] is T13, PAK3 (Homo sapiens, UniProt O75914).
T13 construct: purchased ThermoFisher (SelectScreen, Z'-LYTE)
The method, boiled down:
as §1

A word on the inhibition: it is the drop in the measured response relative to a control, in per cent.

T13 sequence (O75914 whole entry): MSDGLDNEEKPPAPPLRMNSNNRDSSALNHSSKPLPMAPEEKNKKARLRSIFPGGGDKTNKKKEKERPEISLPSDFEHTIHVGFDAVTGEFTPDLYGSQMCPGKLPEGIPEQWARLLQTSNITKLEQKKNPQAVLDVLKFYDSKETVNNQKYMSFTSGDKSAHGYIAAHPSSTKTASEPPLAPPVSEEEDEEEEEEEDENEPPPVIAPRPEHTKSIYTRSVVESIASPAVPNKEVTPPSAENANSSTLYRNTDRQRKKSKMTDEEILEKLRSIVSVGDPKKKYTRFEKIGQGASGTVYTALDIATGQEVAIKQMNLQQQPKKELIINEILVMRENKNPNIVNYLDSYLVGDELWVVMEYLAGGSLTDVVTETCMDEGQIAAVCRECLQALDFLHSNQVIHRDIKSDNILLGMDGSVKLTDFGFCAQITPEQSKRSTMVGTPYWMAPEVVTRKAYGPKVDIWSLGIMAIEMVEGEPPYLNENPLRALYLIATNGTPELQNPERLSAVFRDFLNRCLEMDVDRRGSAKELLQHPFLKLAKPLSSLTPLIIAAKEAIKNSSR
T7 sequence (P09619 33-1106): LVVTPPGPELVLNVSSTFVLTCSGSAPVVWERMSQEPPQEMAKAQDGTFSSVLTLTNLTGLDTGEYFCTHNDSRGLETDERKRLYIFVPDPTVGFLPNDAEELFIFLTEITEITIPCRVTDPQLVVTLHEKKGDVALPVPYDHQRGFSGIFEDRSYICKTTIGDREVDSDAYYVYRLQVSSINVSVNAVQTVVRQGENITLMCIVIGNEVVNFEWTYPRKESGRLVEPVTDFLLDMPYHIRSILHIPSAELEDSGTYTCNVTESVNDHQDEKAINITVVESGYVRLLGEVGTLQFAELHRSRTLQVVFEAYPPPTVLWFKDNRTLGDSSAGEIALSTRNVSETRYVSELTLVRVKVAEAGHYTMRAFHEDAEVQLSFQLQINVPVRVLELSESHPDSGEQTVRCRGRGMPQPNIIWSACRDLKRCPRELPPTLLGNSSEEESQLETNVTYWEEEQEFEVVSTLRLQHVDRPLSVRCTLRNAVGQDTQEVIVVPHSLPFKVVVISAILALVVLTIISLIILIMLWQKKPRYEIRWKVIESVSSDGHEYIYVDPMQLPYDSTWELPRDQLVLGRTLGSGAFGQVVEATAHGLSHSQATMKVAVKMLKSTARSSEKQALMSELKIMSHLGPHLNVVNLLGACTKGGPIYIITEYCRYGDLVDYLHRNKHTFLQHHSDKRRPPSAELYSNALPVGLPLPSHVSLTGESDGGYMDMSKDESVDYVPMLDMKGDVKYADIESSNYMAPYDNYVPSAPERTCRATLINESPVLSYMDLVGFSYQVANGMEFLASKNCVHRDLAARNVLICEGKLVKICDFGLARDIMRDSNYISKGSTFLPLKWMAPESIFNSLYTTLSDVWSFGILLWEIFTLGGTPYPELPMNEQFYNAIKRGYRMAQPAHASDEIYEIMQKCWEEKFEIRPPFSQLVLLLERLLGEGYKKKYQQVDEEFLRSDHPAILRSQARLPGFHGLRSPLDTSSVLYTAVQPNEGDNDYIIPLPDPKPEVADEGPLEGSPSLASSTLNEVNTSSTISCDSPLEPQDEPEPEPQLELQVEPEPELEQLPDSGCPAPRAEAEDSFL
T8 sequence (O75676 whole entry): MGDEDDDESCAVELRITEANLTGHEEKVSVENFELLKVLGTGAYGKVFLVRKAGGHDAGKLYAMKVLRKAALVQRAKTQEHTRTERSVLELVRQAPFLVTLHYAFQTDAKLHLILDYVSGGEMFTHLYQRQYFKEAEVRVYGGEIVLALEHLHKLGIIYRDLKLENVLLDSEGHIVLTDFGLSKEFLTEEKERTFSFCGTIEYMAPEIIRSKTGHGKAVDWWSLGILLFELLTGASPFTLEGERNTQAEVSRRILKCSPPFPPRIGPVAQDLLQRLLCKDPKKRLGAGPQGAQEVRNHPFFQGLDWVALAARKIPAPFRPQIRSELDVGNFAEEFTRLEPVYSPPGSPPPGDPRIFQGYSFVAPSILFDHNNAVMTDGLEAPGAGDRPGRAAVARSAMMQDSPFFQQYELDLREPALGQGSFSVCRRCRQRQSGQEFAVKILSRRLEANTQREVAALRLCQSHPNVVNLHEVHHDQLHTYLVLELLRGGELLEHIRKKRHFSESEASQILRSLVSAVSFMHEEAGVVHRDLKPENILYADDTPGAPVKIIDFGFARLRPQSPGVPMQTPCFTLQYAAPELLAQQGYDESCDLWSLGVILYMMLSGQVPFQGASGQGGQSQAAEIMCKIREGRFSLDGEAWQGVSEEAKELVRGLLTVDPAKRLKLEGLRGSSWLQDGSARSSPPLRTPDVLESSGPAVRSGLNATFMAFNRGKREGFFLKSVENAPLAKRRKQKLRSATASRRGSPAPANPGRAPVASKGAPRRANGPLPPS
T5 sequence (Q9P0L2 whole entry): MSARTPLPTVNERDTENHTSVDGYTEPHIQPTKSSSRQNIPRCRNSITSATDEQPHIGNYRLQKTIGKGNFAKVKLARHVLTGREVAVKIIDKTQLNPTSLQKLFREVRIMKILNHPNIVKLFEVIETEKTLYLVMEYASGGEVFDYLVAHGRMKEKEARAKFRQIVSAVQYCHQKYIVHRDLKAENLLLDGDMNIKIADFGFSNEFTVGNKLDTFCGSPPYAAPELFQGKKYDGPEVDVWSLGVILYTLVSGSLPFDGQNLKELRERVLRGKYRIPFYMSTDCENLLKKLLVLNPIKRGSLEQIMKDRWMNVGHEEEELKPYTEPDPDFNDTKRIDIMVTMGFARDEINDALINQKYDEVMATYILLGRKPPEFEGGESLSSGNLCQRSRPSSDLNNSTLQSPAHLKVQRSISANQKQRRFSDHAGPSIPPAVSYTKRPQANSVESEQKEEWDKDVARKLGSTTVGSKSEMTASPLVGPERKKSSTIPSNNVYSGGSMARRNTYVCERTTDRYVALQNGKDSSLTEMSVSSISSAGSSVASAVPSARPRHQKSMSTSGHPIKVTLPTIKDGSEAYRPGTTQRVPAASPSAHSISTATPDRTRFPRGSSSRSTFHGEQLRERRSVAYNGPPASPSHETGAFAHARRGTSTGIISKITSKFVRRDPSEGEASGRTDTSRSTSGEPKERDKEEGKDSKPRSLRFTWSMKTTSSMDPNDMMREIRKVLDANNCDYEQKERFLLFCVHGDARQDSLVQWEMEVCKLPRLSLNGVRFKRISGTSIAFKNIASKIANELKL
T9 sequence (O96017 whole entry): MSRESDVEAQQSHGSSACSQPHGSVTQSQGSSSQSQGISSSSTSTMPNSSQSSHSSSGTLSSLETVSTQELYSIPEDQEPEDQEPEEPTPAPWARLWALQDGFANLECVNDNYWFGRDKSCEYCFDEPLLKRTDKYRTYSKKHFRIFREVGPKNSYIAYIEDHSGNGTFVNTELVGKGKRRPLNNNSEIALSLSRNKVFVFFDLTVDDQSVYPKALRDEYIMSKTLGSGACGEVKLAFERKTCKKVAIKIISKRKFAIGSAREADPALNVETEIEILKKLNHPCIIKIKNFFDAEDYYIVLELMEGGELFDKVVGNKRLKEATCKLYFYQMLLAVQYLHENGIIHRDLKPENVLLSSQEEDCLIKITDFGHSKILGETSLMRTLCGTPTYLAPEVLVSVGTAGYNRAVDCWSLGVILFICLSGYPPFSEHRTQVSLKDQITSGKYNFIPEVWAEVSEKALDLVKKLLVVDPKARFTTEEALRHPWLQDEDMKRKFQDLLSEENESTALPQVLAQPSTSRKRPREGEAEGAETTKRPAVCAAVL
T4 sequence (P49674 whole entry): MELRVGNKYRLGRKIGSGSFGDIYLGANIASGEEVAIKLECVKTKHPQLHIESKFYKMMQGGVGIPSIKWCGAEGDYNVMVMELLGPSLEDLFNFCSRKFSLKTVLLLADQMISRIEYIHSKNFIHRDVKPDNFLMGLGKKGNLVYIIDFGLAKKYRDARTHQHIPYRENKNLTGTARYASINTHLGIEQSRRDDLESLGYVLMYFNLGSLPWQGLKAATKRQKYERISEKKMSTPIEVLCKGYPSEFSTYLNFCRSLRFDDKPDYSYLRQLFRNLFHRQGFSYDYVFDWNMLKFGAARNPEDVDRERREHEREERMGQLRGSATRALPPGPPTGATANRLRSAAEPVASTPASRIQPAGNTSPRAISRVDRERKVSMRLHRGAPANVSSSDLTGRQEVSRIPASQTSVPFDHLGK

Regarding `Cc1ncc(-c2nc(Nc3ccc(C(=O)NCCN4CCCCC4)cc3)ncc2F)n1C(C)C` [Compound 3], the inhibition at 10 µM in [1] came out at 57%; in assay [2], 97%; in assay [3], 92%; in [4] it was 81%; in [5], 87%; in assay [6] it was 5.66%. Besides, the inhibition at 10 µM was 87% in assay [7]; 89% in assay [8]; 88% in assay [9]; 101% in assay [10]; 33% in assay [11]; 89% in assay [12]. Further, in [13], the inhibition at 10 µM amounted to 37%.
For the molecule `Cc1cc(Nc2nc(N)nn2C(=O)NC(C)C)ccc1Cl` [Compound 5], the inhibition at 10 µM was 0.455% in assay [1]; 7% in assay [2]; -2% in assay [3]; 2.61% in assay [4]; 17% in assay [5]; -6% in [6]. Moreover, the inhibition at 10 µM in [7] amounted to 10%; in [8], 1.89%; in [9] it was 4.23%; in [10] it was 56%; in assay [11], 13%; in assay [12] it was 10%. In assay [13], the inhibition at 10 µM was -12%.
“XMD8-92 [Compound 2, reference compound]”: the “PLK1 % Inhibition” value in assay [1] (10 µM compound, ATP Km app) was determined as 10%. In addition, in assay [2] (10 µM compound, ATP Km app), the “EPHB2 % Inhibition” value turned out to be 18%. The “CSNK1D (CK1 delta) % Inhibition” value in assay [3] (10 µM compound, ATP Km app) is on record as 4.56%. The “CSNK1E (CK1 epsilon) % Inhibition” value in assay [4] (10 µM compound, ATP Km app) was 4%. In addition, the “MARK1 (MARK) % Inhibition” value in assay [5] (10 µM compound, ATP Km app) was 11%. Further, the “PRKCI (PKC iota) % Inhibition” value in assay [6] (10 µM compound, ATP Km app) is recorded as 0.17%. Besides, the “PDGFRB (PDGFR beta) % Inhibition” value in assay [7] (10 µM compound, ATP Km app) amounted to 7%. The “RPS6KA4 (MSK2) % Inhibition” value in [8] (10 µM compound, ATP Km app) stood at 12%. Also, the “CHEK2 (CHK2) % Inhibition” value in assay [9] (10 µM compound, ATP Km app) worked out at 26%. Also, in assay [10] (10 µM compound, ATP Km app), the “CDK2/cyclin A % Inhibition” value is 20%. In addition, in [11] (10 µM compound, ATP Km app), the “DNA-PK % Inhibition” value was found to be 38%. Besides, in assay [12] (10 µM compound, ATP Km app), the “PRKCG (PKC gamma) % Inhibition” value stood at 62%. The “PAK3 % Inhibition” value in assay [13] (10 µM compound, ATP Km app) worked out at 71%.
